{"source": "patent US20230321094A1", "about": "“COMBINATION THERAPIES WITH OLIG2 INHIBITORS” (Curtana Pharmaceuticals, Inc., priority 2020, published 2023)", "system": "NX18 cells", "test": "Glioblastoma neurosphere cell viability with the test compound and an mTOR inhibitor, Cell TiterGlo", "type": "cell-based", "conditions": "NX18 neurospheres, 72 hours, normalized to DMSO vehicle; for cytotoxicity at 0.01 µM: mTOR inhibitor alone, final concentration 10 nM, read-out: percent inhibition of cell viability, mTOR inhibitor alone; for percent inhibition of cell viability, Combined: named mTOR inhibitor (10 nM) combined with test compound @ 3 μM", "experimental": "After another 72 hours, cell viability was determined using the Cell TiterGlo kit (#G7570, Promega, Madison. WI) following the manufacturer's instructions on a Tecan M200 Pro Plate Reader (Tecan, Mannedorf, CH). Percent viable cells were normalized against vehicle control (DMSO set as 100%)."}
{"smiles": "CO[C@H]1C[C@@H]2CC[C@@H](C)[C@@](O)(O2)C(=O)C(=O)N2CCCC[C@H]2C(=O)O[C@H]([C@H](C)C[C@@H]2CC[C@@H](OCCO)[C@H](OC)C2)CC(=O)[C@H](C)/C=C(\\C)[C@@H](O)[C@@H](OC)C(=O)[C@H](C)C[C@H](C)/C=C/C=C/C=C/1C", "note": "[Everolimus]", "values": [{"measurement": "cytotoxicity at 0.01 µM", "value": 45, "unit": "%"}, {"measurement": "percent inhibition of cell viability, Combined", "value": 60, "unit": "%"}]}
{"smiles": "CO[C@H]1C[C@@H]2CC[C@@H](C)[C@@](O)(O2)C(=O)C(=O)N2CCCC[C@H]2C(=O)O[C@H]([C@H](C)C[C@@H]2CC[C@@H](O)[C@H](OC)C2)CC(=O)[C@H](C)/C=C(\\C)[C@@H](O)[C@@H](OC)C(=O)[C@H](C)C[C@H](C)/C=C/C=C/C=C/1C", "note": "[Rapamycin]", "values": [{"measurement": "cytotoxicity at 0.01 µM", "value": 41, "unit": "%"}, {"measurement": "percent inhibition of cell viability, Combined", "value": 61, "unit": "%"}]}
{"smiles": "Cc1cc(NCCCN(C)C)nc(NC(=O)Nc2ccc(Cl)c(Cl)c2)n1", "note": "[Test compound]", "values": [{"measurement": "cytotoxicity at 3 µM", "setting": "test compound alone at 3 μM, read-out: percent inhibition of cell viability, Test compound @ 3 μM", "value": 30, "unit": "%"}]}
